Measured values: US12435044B2, “Pyridazinone herbicides and pyridazinone intermediates used to prepare a herbicide” (FMC Corporation, priority 2018, dated 2025)

How the values were obtained:
Assay type in all cases: in vivo
[1] = tested on: waterhemp_RES1, (ALS & Triazine resistant common waterhemp, Amaranthus rudis); experiment: Test E postemergence greenhouse test
Description: (§1) Seeds of plant species selected from corn (Zea mays), soybean (Glycine max), velvetleaf (Abutilon theophrasti), lambsquarters (Chenopodium album), poinsettia, wild (Euphorbia heterophylla), pigweed, palmer (Amaranthus palmeri), waterhemp (common waterhemp, Amaranthus rudis), surinam grass (Brachiaria decumbens), crabgrass, large (Digitaria sanguinalis), crabgrass, Brazil (Digitaria horizontalis), panicum, fall (Panicum dichotomiflorum), foxtail, giant (Setaria faberii), foxtail, green (Setaria viridis), goosegrass (Eleusine indica), johnsongrass (Sorghum halepense), ragweed (common ragweed, Ambrosia elatior), barnyardgrass (Echinochloa crus-galli), sandbur (southern sandbur, Cenchrus echinatus), arrowleaf sida (Sida rhombifolia), ryegrass, Italian (Lolium multiflorum), dayflower, VA (Virginia (VA) dayflower, Commelina virginica), field bindweed (Convolvulus arvensis), morningglory (Ipomoea coccinea), horseweed (Conyza canadensis), kochia (Kochia scoparia), nutsedge, yellow (Cyperus esculentus) and hairy beggarticks (Bidenspilosa), were planted into a silt loam soil and treated preemergence with test chemicals formulated in a non-phytotoxic solvent mixture which included a surfactant.
(§2) At the same time, plants selected from these crop and weed species and also waterhemp_RES1, (ALS & Triazine resistant common waterhemp, Amaranthus rudis), and waterhemp_RES2, (ALS & HPPD resistant common waterhemp, Amaranthus rudis) were planted in pots containing Redi-Earth® planting medium (Scotts Company, 14111 Scottslawn Road, Marysville, Ohio 43041) comprising spaghnum peat moss, vermiculite, wetting agent and starter nutrients were treated with postemergence applications of test chemicals formulated in the same manner. Plants ranged in height from 2 to 18 cm for postemergence treatments (1- to 4-leaf stage). Treated plants and controls were maintained in a greenhouse for 14 to 21 d, after which time all species were compared to controls and visually evaluated. Plant response ratings, summarized in Table E, are based on a scale of 0 to 100 where 0 is no effect and 100 is complete control. A dash (-) response means no test result.

[2] = tested on: waterhemp_RES2, (ALS & HPPD resistant common waterhemp, Amaranthus rudis); experiment: Test E postemergence greenhouse test
Description: as §1, §2

[3] = tested on: speedwell (bird's-eye speedwell, Veronica persica); experiment: Test C postemergence greenhouse test; settings: scale 0 to 100
Description: (§3) Seeds of plant species selected from blackgrass (Alopecurus myosuroides), ryegrass, Italian (Lolium multiflorum), wheat, winter (winter wheat, Triticum aestivum), galium (catchweed bedstraw, Galium aparine), corn (Zea mays), crabgrass, large (Digitaria sanguinalis), foxtail, giant (Setaria faberii), johnsongrass (Sorghum halepense), lambsquarters (Chenopodium album), morningglory (Ipomoea coccinea), nutsedge, yellow (Cyperus esculentus), pigweed (Amaranthus retroflexus), ragweed (common ragweed, Ambrosia elatior), soybean (Glycine max), barnyardgrass (Echinochloa crus-galli), oilseed rape (Brassica napus), waterhemp (common waterhemp, Amaranthus rudis), pigweed, palmer (Amaranthus palmeri), kochia (Kochia scoparia), oat, wild (Avena fatua), surinam grass (Brachiaria decumbens), windgrass (Apera spica-venti), poinsettia, wild (Euphorbia heterophylla) and velvetleaf (Abutilon theophrasti) were planted into a silt loam soil and treated preemergence with test chemicals formulated in a non-phytotoxic solvent mixture which included a surfactant.
(§4) At the same time, plants selected from these crop and weed species and also chickweed (common chickweed, Stellaria media), buckwheat, wild (Polygonum convolvulus), mustard, wild (Sinapis arvensis), field poppy (Papaver rhoeas), field violet (Viola arvensis), nightshade (eastern black nightshade, Solanum ptycanthum), speedwell (bird's-eye speedwell, Veronica persica), horseweed (Conyza canadensis), cutleaf geranium (Geranium dissectum), and Canada thistle (Cirsium arvense) were planted in pots containing Redi-Earth® planting medium (Scotts Company, 14111 Scottslawn Road, Marysville, Ohio 43041) comprising spaghnum peat moss, vermiculite, wetting agent and starter nutrients and treated with postemergence applications of test chemicals formulated in the same manner. Plants ranged in height from 2 to 18 cm (1- to 4-leaf stage) for postemergence treatments. Treated plants and controls were maintained in a greenhouse for 13 to 21 d, after which time all species were compared to controls and visually evaluated. Plant response ratings, summarized in Table C-1 (postemergence) and C-2 (preemergence), are based on a scale of 0 to 100 where 0 is no effect and 100 is complete control. A dash (-) response means no test result.

[4] = tested on: mustard, wild (Sinapis arvensis); experiment: Test C postemergence greenhouse test; settings: scale 0 to 100
Description: as §3, §4

[5] = tested on: field violet (Viola arvensis); experiment: Test C postemergence greenhouse test; settings: scale 0 to 100
Description: as §3, §4

[6] = tested on: cutleaf geranium (Geranium dissectum); experiment: Test C postemergence greenhouse test; settings: scale 0 to 100
Description: as §3, §4

[7] = tested on: buckwheat, wild (Polygonum convolvulus); experiment: Test C postemergence greenhouse test; settings: scale 0 to 100
Description: as §3, §4

[8] = tested on: Canada thistle (Cirsium arvense); experiment: Test C postemergence greenhouse test; settings: scale 0 to 100
Description: as §3, §4

Row | Compound | Plant response rating, Speedwell ([3]; 16 g ai/ha) | Plant response rating, Speedwell ([3]; 31 g ai/ha) | Plant response rating, Speedwell ([3]; 62 g ai/ha) | Plant response rating, Speedwell ([3]; 125 g ai/ha) | Plant response rating, Mustard, Wild ([4]; 16 g ai/ha) | Plant response rating, Mustard, Wild ([4]; 31 g ai/ha) | Plant response rating, Mustard, Wild ([4]; 62 g ai/ha) | Plant response rating, Mustard, Wild ([4]; 125 g ai/ha) | Plant response rating, Field Violet ([5]; 16 g ai/ha) | Plant response rating, Field Violet ([5]; 31 g ai/ha) | Plant response rating, Field Violet ([5]; 62 g ai/ha) | Plant response rating, Field Violet ([5]; 125 g ai/ha) | Plant response rating, Cutleaf Geranium ([6]; 16 g ai/ha) | Plant response rating, Cutleaf Geranium ([6]; 31 g ai/ha) | Plant response rating, Cutleaf Geranium ([6]; 62 g ai/ha) | Plant response rating, Cutleaf Geranium ([6]; 125 g ai/ha) | Plant response rating, Buckwheat, Wild ([7]; 16 g ai/ha) | Plant response rating, Buckwheat, Wild ([7]; 31 g ai/ha) | Plant response rating, Buckwheat, Wild ([7]; 62 g ai/ha) | Plant response rating, Buckwheat, Wild ([7]; 125 g ai/ha) | further results
1 | Cc1ccc2ccc(C)c(-c3c(O)c(Cl)nn(C)c3=O)c2c1 [Cpd. No. 20, 6-chloro-4-(2,7-dimethyl-1-naphthalenyl)-5-hydroxy-2-methyl-3(2H)-pyridazinone] |  |  |  |  |  |  |  |  |  |  |  |  |  |  |  |  |  |  |  |  | Plant response rating, Waterhemp_RES1 ([1]; 16 g ai/ha): 75; Plant response rating, Waterhemp_RES1 ([1]; 31 g ai/ha): 90; Plant response rating, Waterhemp_RES1 ([1]; 62 g ai/ha): 80; Plant response rating, Waterhemp_RES1 ([1]; 125 g ai/ha): 95; Plant response rating, Waterhemp_RES2 ([2]; 16 g ai/ha): 15; Plant response rating, Waterhemp_RES2 ([2]; 31 g ai/ha): 40; Plant response rating, Waterhemp_RES2 ([2]; 62 g ai/ha): 60; Plant response rating, Waterhemp_RES2 ([2]; 125 g ai/ha): 70
2 | Cc1ccc2ccc(Cl)cc2c1-c1c(O)c(Cl)nn(C)c1=O [Cpd. No. 22] | 50 | 60 | 75 | 90 | 75 | 75 | 100 | 100 | 60 | 70 | 75 | 80 | 70 | 80 | 85 | 85 | 95 | 100 | 100 | 100 | Plant response rating, Canada Thistle ([8]; 16 g ai/ha): 80; Plant response rating, Canada Thistle ([8]; 31 g ai/ha): 80; Plant response rating, Canada Thistle ([8]; 62 g ai/ha): 100; Plant response rating, Canada Thistle ([8]; 125 g ai/ha): 100
3 | Cc1cc(Cl)c2ccccc2c1-c1c(O)c(Cl)nn(C)c1=O [Cpd. No. 65] | 55 | 65 | 75 | 90 | 98 | 100 | 100 | 100 | 70 | 80 | 85 | 85 | 85 | 90 | 95 | 95 | 100 | 100 | 100 | 100 | Plant response rating, Canada Thistle ([8]; 16 g ai/ha): 80; Plant response rating, Canada Thistle ([8]; 31 g ai/ha): 90; Plant response rating, Canada Thistle ([8]; 62 g ai/ha): 98; Plant response rating, Canada Thistle ([8]; 125 g ai/ha): 90
